Measured values from patent US20240216325A1, “NUCLEAR FACTOR KAPPA B PATHWAY INHIBITION TO ARREST CALCIFIC AORTIC STENOSIS” (CORNELL UNIVERSITY, priority 2019, published 2024).

Experiments:
[1] = system: LDLR−/− mice, a CAVD mouse model; experiment: Echocardiography (pulsed-wave Doppler) of heart valve function in CAVD mouse model; assay type: in vivo
Method: Animals. Mouse experiments were performed according to the guidelines of the National Institute of Health and the protocols approved by the Institutional Animal Care and Use Committee of Cornell University. The mice used were LDLR (low-density lipoprotein receptor)-/- mice from Jackson Labs (No. 2270). Mice were fed a high-fat diet (Harlan Teklad No. TD88137, 42% of calories from fat, 0.25% cholesterol). Age-matched C57BL6J mice were obtained from Jackson Laboratories (Bar Harbour, ME) for control study. Drug administration. The NFκB pathway was intervened by administering either BAY11-7082 (injected intraperitoneal 3 times per week at 5 mg/kg) or tetrahydrobiopterin (BH4) (oral gavage at 10 mg/kg/day) to LDLR/mice, for 8 weeks after giving them high fat diet for 20 weeks Echocardiography. Transthoracic echocardiography was performed under 2% isofluorane anaesthesia, with M[…] and MS5[…] probes connected to a Vevo 2100 system (VisualSonics). Heart valve function was assessed at 6 months and 8 months of age using according to established procedures. Mice were anesthetized using inhaled 2% isoflurane. Abdominal hair was removed using a chemical depilatory cream, and warmed ultrasound transmission gel was applied to the anterior thorax. Probes were applied in the long-axis and short-axis position to the chest. Transvalvular velocity and pressure gradients were captured using the pulsed-wave Doppler mode and manual tracing of >3 velocity time intervals on the resulting plots. In this work, the NFkB pathway was intervened by administering either BAY11-7082 (injected intraperitoneal 3 times per week at 5 mg/kg) or tetrahydrobiopterin (BH4) (oral gavage at 10 mg/kg/day) to LDLR^-/- mice, a CAVD mouse model, for another 8 weeks after starting them on high fat diet for 20 weeks (FIGS. 17A-17C). Cardiac hemodynamic parameters, such as aortic valve peak velocity and left ventricle ejection fraction, were measured using doppler ultrasound before and after BAYT 1-7082 and BH4 administration. […]

[2] = system: LDLR−/− mice, a CAVD mouse model; experiment: Alizarin red staining for calcium contents on the aortic valves; assay type: in vivo; conditions: 8 weeks treatment after 20 weeks high fat diet
Method: Animals. Mouse experiments were performed according to the guidelines of the National Institute of Health and the protocols approved by the Institutional Animal Care and Use Committee of Cornell University. The mice used were LDLR (low-density lipoprotein receptor)−/− mice from Jackson Labs (No. 2270). Mice were fed a high-fat diet (Harlan Teklad No. TD88137, 42% of calories from fat, 0.25% cholesterol). Age-matched C57BL6J mice were obtained from Jackson Laboratories (Bar Harbour, ME) for control study. Drug administration. The NFκB pathway was intervened by administering either BAY11-7082 (injected intraperitoneal 3 times per week at 5 mg/kg) or tetrahydrobiopterin (BH4) (oral gavage at 10 mg/kg/day) to LDLR/mice, for 8 weeks after giving them high fat diet for 20 weeks Tissue staining and immunohistochemistry. Mouse hearts were isolated, perfused, fixed, embedded in paraffin, sectioned, and mounted. Alizarin red staining (ARS). Sections were deparaffinized and incubated in ARS stain for 5 minutes (1% Alizarin red in water, pH 4.2 adjusted by using 10% ammonium hydroxide in water). Sections were incubated in acetone for 30 seconds and then rinsed with a 1:1 solution of acetone and xylene. […] Cardiac hemodynamic parameters, such as aortic valve peak velocity and left ventricle ejection fraction, were measured using doppler ultrasound before and after BAYT 1-7082 and BH4 administration. […]

[3] = system: LDLR−/− mice, a CAVD mouse model; experiment: Fibro-osteogenic gene profiling (Q-PCR) on aortic valve tissues; assay type: in vivo; conditions: 8 weeks treatment after 20 weeks high fat diet
Method: Animals. Mouse experiments were performed according to the guidelines of the National Institute of Health and the protocols approved by the Institutional Animal Care and Use Committee of Cornell University. The mice used were LDLR (low-density lipoprotein receptor)−/− mice from Jackson Labs (No. 2270). Mice were fed a high-fat diet (Harlan Teklad No. TD88137, 42% of calories from fat, 0.25% cholesterol). Age-matched C57BL6J mice were obtained from Jackson Laboratories (Bar Harbour, ME) for control study. Drug administration. The NFκB pathway was intervened by administering either BAY11-7082 (injected intraperitoneal 3 times per week at 5 mg/kg) or tetrahydrobiopterin (BH4) (oral gavage at 10 mg/kg/day) to LDLR/mice, for 8 weeks after giving them high fat diet for 20 weeks Q-PCR analysis. Mouse Aortic valve samples were homogenized, total RNA was isolated using Takarabio RNA, purified and further quantified via Nanodrop. […] Quantitative RT-PCR was performed on all samples using SYBR Green PCR master mix (Applied Biosystems, Foster City, CA) and a CFX96 or MiniOpticon Real-Time PCR Detection System (Bio-Rad, Hercules, CA). […] Cardiac hemodynamic parameters, such as aortic valve peak velocity and left ventricle ejection fraction, were measured using doppler ultrasound before and after BAYT 1-7082 and BH4 administration. […]

[4] = system: NFκB canonical signaling activity; conditions: acute cardiovascular injury, literature; cited from earlier work
[5] = system: Porcine aortic VEC; experiment: VEC on 3D collagen hydrogels, calcification by Alizarin Red S staining and dye extraction; assay type: cell-based; conditions: OGM+TNFα 30 ng/mL, 14 days
Source text: Primary Aortic Valve Cell Isolation and Culture. Porcine valves are a widely used analog for human adult valve endothelial and interstitial cells. Unlike mice, pigs develop atherosclerosis and valvular lesions without intervention, similar to humans. Large-scale culture of porcine valve cell populations is feasible due to ample tissue size/cell dissociation yields. […] Only VEC cultures with consistent CD31 and VE-cadherin (vascular endothelial cadherin) expression, cobblestone morphology, and nondetectable αSMA (alphasmooth muscle actin) expression were used. αSMA levels were measured via RT-PCR (>37 cycle threshold), Western blot, and immunofluorescence.
All reagents were obtained from Sigma Aldrich, St. Louis, MO, unless otherwise noted. […]
Hydrogel Calcification Analysis. To quantify calcified matrix developed in different experimental conditions, an Alizarin Red absorbance assay was implemented. […] The concentration of dye in solution was then quantified using absorbance spectroscopy at 405-nm wavelength. Samples absorbance readings were normalized to basal growth medium culture condition.

[6] = system: NFκB p65; experiment: p65 nuclear localization in VEC on 3D hydrogels (immunofluorescence); assay type: cell-based, porcine; conditions: 48 hour, OGM alone insufficient
Method: White arrows indicate cells with nuclear-positive signal. Scale bar is 20 μm. […] Asterisks indicate statistically significant groups (*: p<0.05).
3D Hydrogel Culture Model Preparation. Cellularized type II collagen hydrogels were prepared as previously described (Butcher et al., “Valvular Endothelial Cells Regulate the Phenotype of Interstitial Cells in Co-Culture: Effects of Steady Shear Stress,” Tissue Eng. 12:905-915 (2006), which is hereby incorporated by reference in its entirety)). Briefly, porcine aortic valve endothelial cells were topically seeded at 50,000 cell/cm^2 density, whereas porcine aortic valve interstitial cells were encapsulated within the neutralized collagen gel suspension (2 mg/mL) at 1,000,000 cells/mL density. Constructs were allowed to gel for 1 hour at 37° C., 5% CO2, and then cultured overnight in their respective basal-medium conditions. For osteogenic differentiation conditions, basal-medium was supplemented with 10 mmol/L β-glycerophosphate, 50 μg/mL 1-ascorbic acid, and 100 nM dexamethasone, as previously described (Richards et al., “Side-Specific Endothelial-Dependent Regulation of Aortic Valve Calcification: Interplay of Hemodynamics and Nitric Oxide Signaling,” Am J Pathol. 182:1922-1931 (2013), which is hereby incorporated by reference in its entirety). […]

[7] = system: valve endothelial cells (VEC); experiment: EndMT in VEC: VE-cadherin, αSMA, SNAI1 by RT-PCR and immunofluorescence; assay type: cell-based, porcine; conditions: GM+TNFα 30 ng/mL, 48 h
Method: Scale bar is 20 μm. […] Scale bar is […]. […] Arrows indicate cells coexpressing CD31 and αSMA. Scale bar is 100 μm. […] Asterisks indicate β-gal-positive cells in interstitial space. Scale bar is […]. CTL indicates control; GM, basal growth medium; and LDLR, low-density lipoprotein receptor.
3D Hydrogel Culture Model Preparation. Cellularized type II collagen hydrogels were prepared as previously described (Butcher et al., “Valvular Endothelial Cells Regulate the Phenotype of Interstitial Cells in Co-Culture: Effects of Steady Shear Stress,” Tissue Eng. 12:905-915 (2006), which is hereby incorporated by reference in its entirety)). Briefly, porcine aortic valve endothelial cells were topically seeded at 50,000 cell/cm^2 density, whereas porcine aortic valve interstitial cells were encapsulated within the neutralized collagen gel suspension (2 mg/mL) at 1,000,000 cells/mL density. Constructs were allowed to gel for 1 hour at 37° C., 5% CO2, and then cultured overnight in their respective basal-medium conditions. For osteogenic differentiation conditions, basal-medium was supplemented with 10 mmol/L β-glycerophosphate, 50 μg/mL 1-ascorbic acid, and 100 nM dexamethasone, as previously described (Richards et al., “Side-Specific Endothelial-Dependent Regulation of Aortic Valve Calcification: Interplay of Hemodynamics and Nitric Oxide Signaling,” Am J Pathol. 182:1922-1931 (2013), which is hereby incorporated by reference in its entirety). For exogenous TNFα administration, recombinant human TNFα was added to appropriate media condition before administration at 30 ng/mL.
Quantitative Real-Time Polymerase Chain Reaction. Total RNA was extracted using a RNeasy total RNA purification kit (Qiagen, Valencia, CA), and RNA was reverse transcribed to cDNA using the iScript cDNA synthesis kit (Bio-Rad, Hercules, CA). Quantitative RT-PCR was performed on all samples using SYBR Green PCR master mix (Applied Biosystems, Foster City, CA) and a CFX96 or MiniOpticon Real-Time PCR Detection System (Bio-Rad, Hercules, CA). Samples amplifying at >37 cycles were considered nondetectable.
For in vitro cultures, intact collagen gels were rinsed twice in PBS and fixed in 4% paraformaldehyde for 1 hour at 25° C. Samples were rinsed 3× on a rocker with PBS for 15 minutes each, permeabilized with 0.2% Triton-X (VWR International, West Chester, PA) for 10 minutes on rocker, and blocked in 10% goat serum for 1 hour at 25° C.

[8] = biological target: T1, RANKL (Mus musculus, UniProt O35235); conditions: literature (Weiss et al. 2013); cited from earlier work
T1 construct: host or cells: hypercholesterolemic mice (in vivo, endogenous protein)
T1 sequence (O35235 1-316): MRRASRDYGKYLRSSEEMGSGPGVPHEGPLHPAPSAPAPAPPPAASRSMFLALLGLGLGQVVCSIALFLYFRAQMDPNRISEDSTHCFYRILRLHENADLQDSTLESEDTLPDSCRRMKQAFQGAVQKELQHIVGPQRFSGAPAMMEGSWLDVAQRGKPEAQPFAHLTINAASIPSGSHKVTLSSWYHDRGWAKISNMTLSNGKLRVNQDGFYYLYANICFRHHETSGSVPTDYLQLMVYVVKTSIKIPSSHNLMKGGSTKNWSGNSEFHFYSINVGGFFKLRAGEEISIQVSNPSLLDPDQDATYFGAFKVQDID

[9] = LDLR−/− mice on high fat diet, treatment from 6 months, read at 8 months, vs control LDLR−/− given 10% DMSO/PBS

## Cc1ccc(S(=O)(=O)/C=C/C#N)cc1 [BAY11-7082]
[1]; [9]
  aortic valve peak velocity: lessened increase
  ejection fraction velocity ratio (EFVR): lessened
[1]; female vs male LDLR−/− mice, 8 weeks treatment
  hemodynamic effect by sex: significantly affected both female and male mice
[2]
  calcium deposition on the aortic valves (Alizarin red staining): less calcium deposition
[3]
  collagen type 1A (Col1A) mRNA expression in aortic valve tissue: significantly decreased
  intercellular adhesion molecule 1 (ICAM1) mRNA expression in aortic valve tissue: significantly decreased
[4]
  treatment of septic shock or ischemic reperfusion injury: effective

## TNFα
[5]
  calcium deposition (ARS): significantly increased
[6]
  p65 nuclear localization: required to induce p65 nuclear localization
[7]
  EndMT induction: induced EndMT
  SNAI1 gene expression: significantly increased
  VE-cadherin gene expression (CDH5): reduction in gene expression
  αSMA expression: increased

## osteoprotegerin: decoy receptor for RANKL
[8]
  CAVD calcification: mitigates CAVD calcification
